Experimental findings from US20100197625A1, “SYNTHETIC LIPOPHILIC INOSITOL GLYCANS FOR TREATMENT OF CANCER AND GLUCOSE-METABOLISM DISORDERS” (priority 2006, published 2010) are described below.

For series [1], the system named is human prostate cancer cells (PC3). Briefly: Cell proliferation / cell death assay, PC3. Format: cell-based. Particulars: PC3, 10-100 μM. Here is the method:
(§1) Human pancreatic cancer cell lines (Panc-1, MiaPaca2, BXPC3, Aspc 1), human hepatoma cell line (HuH7), human gastric cancer cell lines (AGS, MKN45), human colon cancer cell line (CoCM-1), human mammary cancer cell line (MCF-7), human neuroblastoma (SH-SY5Y), human prostate cancer cells (PC3), and murine Ehrlich ascites cancer cells and mouse 3T3-L1 fibroblasts were obtained from American Type Culture Collection (Rockville, Md., USA). The cancer cells were cultured in RPMI 1640 containing 10% fetal calf serum. Cultures were maintained at 37° C. in a humidified atmosphere of 5% CO2.
Cell proliferation assays were performed with the CellTiter 96 AQueous One Solution Cell Proliferation Assay kit according to the manufacturer's instructions (Promega, Madison, Wis., USA). Briefly, 5×10^3 cells/well in medium were placed onto 96-well plates. IGs were added to cellular cultures at final concentrations of 0, 1, 10, and 100 μM. […] of CellTiter 96 AQueous One Solution Reagent, which contains a tetrazolium compound, 3-(4,5-dimethylthiazol-2-yl)-5-(3-carboxymethoxyphenyl)-2-(4-sulfophenyl)-2H-tetrazolium, an inner salt; MTS was added to the culture medium. After incubating the plate for 1 h in a CO2 incubator, absorbance at 490 nm was recorded with a 96-well plate reader.

Series [2] deals with human colon cancer cells (CoCM-1). The series can be described thus: Cell proliferation / cell death assay, CoCM-1. Type of series: cell-based. Particulars: CoCM-1, 10-100 μM. Here is the method:
as §1
(§2) Cell proliferation assays were performed with the CellTiter 96 AQueous One Solution Cell Proliferation Assay kit according to the manufacturer's instructions (Promega, Madison, Wis., USA). Briefly, 5×10^3 cells/well in medium were placed onto 96-well plates. IGs were added to cellular cultures at final concentrations of 0, 1, 10, and 100 μM. Cultures were incubated for 3 days or 7 days and then added to 20 μL/well of CellTiter 96 AQueous One Solution Reagent, which contains a tetrazolium compound, 3-(4,5-dimethylthiazol-2-yl)-5-(3-carboxymethoxyphenyl)-2-(4-sulfophenyl)-2H-tetrazolium, an inner salt; MTS was added to the culture medium. After incubating the plate for 1 h in a CO2 incubator, absorbance at 490 nm was recorded with a 96-well plate reader.

For series [3], the system named is human normal cultured cells. Briefly: Proliferation of human normal cultured cells. Particulars: 1-100 μM, data not shown. Type of series: cell-based. Here is the method:
Human primary culture cells, dermal fibroblasts, epidermal keratinocytes and umbilical vein endothelial cells were purchased from Cell Applications (San Diego, Calif., USA) and cultured according to the manufacturer's instructions.
as §2

For another series, the system named is native rat adipocytes. Briefly: Lipogenesis in native rat adipocytes. Format: cell-based. As to conditions: rat isolated adipocytes. Here is the method:
Adipocytes were isolated from epididymal fat pads dissected from freshly sacrificed male Long-Evans rats and incorporation of [6-^3H]-glucose into triglycerides in response to treatment with inositol glycans or insulin was measured as previously described (Chakraborty, N. and M. d'Alarcao, Bioorganic & Medicinal Chemistry 13 (2005) 6732-6741).

Series [4] has as its system C57B/6 mice on high-fat diets. Briefly: Intraperitoneal IG1 for 7 days, mice on high-fat diets. Type of series: in vivo. Here is the method:
Male C57BL/6 mice were housed individually and given free access to a standard diet (65% carbohydrate, 4% fat, and 24% protein) or a high-fat diet (Quick Fat; 60.2% carbohydrate, 15.3% fat, and 24.5% protein; Clea Japan, Tokyo, Japan), starting at 5 weeks of age, for 5 weeks. Db/db mice also were housed individually and given free access to a standard diet. C57BL/6 mice at 5 weeks of age, were received a single dose of 75 μg/g body weight streptozotoxin (STZ). 7 days after injections, the mice, whose fasting plasma glucose concentrations were over 400 mg/dl, were used as STZ-diabetic mice. Animal study protocols were in accordance with the institutional guidelines for animal experiments at Tohoku University.
Frozen livers were homogenized, and triglycerides were extracted with CHCl3:CH3OH (2:1, vol:vol), dried and resuspended in 2-propanol (17). Triglyceride contents were measured using Lipidos liquid (TOYOBO, Osaka, Japan). Glycogen was isolated from 30-50 mg of frozen liver by dissolving the tissue in 30% potassium hydroxide saturated with Na2SO4 for 30 min at 100° C., followed by ethanol precipitation. Glycogen content was determined by the phenol-sulfuric acid spectrophotometric method at 490 nm (18) and expressed as micrograms of glycogen per milligram of liver.
Blood glucose was assayed with Glucose Ace (Sanwa Kagaku Kenkyusho, Nagoya, Japan). Serum insulin and leptin were determined with ELISA kits (Morinaga Institute of Biological Science, Yokohama, Japan). Serum adiponectin and tumor necrosis factor-α (TNF-α) concentrations were measured with an ELISA kit (Ohtsuka Pharmaceutical, Tokyo, Japan) and a TNF-α assay kit (Amersham Biosciences, Uppsala, Sweden), respectively. Serum total cholesterol, triglyceride, and FFA concentrations were determined with a Cholescolor liquid, Lipidos liquid (TOYOBO, Osaka, Japan), and NEFA C (Wako Pure Chemical, Osaka, Japan) kits, respectively.
Glucose tolerance was assessed with intraperitoneal glucose tolerance. Glucose tolerance tests were performed on fasted (16 h) mice. Mice were given intraperitoneal glucose (2 g/kg body wt), and blood glucose was assayed immediately before and at 15, 30, 60, and 120 min after administration.

A further series relates to AGS. The series can be described thus: Cell proliferation / cell death assay, AGS. Type of series: cell-based, human. Particulars: 10-100 μM. Here is the method:
as §1, §2

The next series deals with db/db mice. The series can be described thus: Intraperitoneal IG1 for 7 days, db/db mice. Particulars: intraperitoneal for every 7 days, data not shown. Type of series: in vivo. Here is the method:
Male C57BL/6 mice were housed individually and given free access to a standard diet (65% carbohydrate, 4% fat, and 24% protein) or a high-fat diet (Quick Fat; 60.2% carbohydrate, 15.3% fat, and 24.5% protein; Clea Japan, Tokyo, Japan), starting at 5 weeks of age, for 5 weeks. Db/db mice also were housed individually and given free access to a standard diet. C57BL/6 mice at 5 weeks of age, were received a single dose of 75 μg/g body weight streptozotoxin (STZ). 7 days after injections, the mice, whose fasting plasma glucose concentrations were over 400 mg/dl, were used as STZ-diabetic mice. […]
Frozen livers were homogenized, and triglycerides were extracted with CHCl3:CH3OH (2:1, vol:vol), dried and resuspended in 2-propanol (17). Triglyceride contents were measured using Lipidos liquid (TOYOBO, Osaka, Japan). […] Glycogen content was determined by the phenol-sulfuric acid spectrophotometric method at 490 nm (18) and expressed as micrograms of glycogen per milligram of liver.
Blood glucose was assayed with Glucose Ace (Sanwa Kagaku Kenkyusho, Nagoya, Japan). Serum insulin and leptin were determined with ELISA kits (Morinaga Institute of Biological Science, Yokohama, Japan). Serum adiponectin and tumor necrosis factor-α (TNF-α) concentrations were measured with an ELISA kit (Ohtsuka Pharmaceutical, Tokyo, Japan) and a TNF-α assay kit (Amersham Biosciences, Uppsala, Sweden), respectively. […]

In a further series the test system is MKN45. Briefly: Cell proliferation / cell death assay, MKN45. Format: cell-based, human. As to conditions: MKN45, 10-100 μM. Here is the method:
as §1, §2

Where [5] appears, read: high fat-diets, IG1 1 mg, 7 days, Mean ± SD (n = 6).

In general, EC50 refers to the concentration at which the effect is half-maximal. For `CCCCCCCCCCCCCCCC(=O)O[C@@H]1C(O)C(O)[C@H](O)C(O[C@H]2OC(CO)[C@@H](O)[C@H](O)C2N)C1O` (stereo in doubt) [IG1, 2-Amino-2-deoxy-α-D-glucopyranosyl-(1→6)-2-palmitoyl-D-myo-inositol], in series [1], the “rapid cancer cell death” value was “rapid cancer cell death was demonstrated”. Also, the “rapid cancer cell death” value in series [2] is “rapid cancer cell death was demonstrated”. In series [3], the “proliferation of human normal cultured cells” value is given as “did not affect the proliferation”. Also, the EC50 in the series with native rat adipocytes (Adipocyte, fit to receptor binding model, read-out: EC50 value for stimulation of lipogenesis) came to 14 µM. In addition, the Emax in the series on native rat adipocytes (Adipocyte, stimulation of lipogenesis, read-out: Amax (maximal effect)) amounted to 24%. Besides, in the series with native rat adipocytes (concentration series), the stimulation of lipogenesis result is reported as “stimulated lipogenesis”. In series [4] (after 7 days, data not shown), the “hepatic and muscular glycogen contents” value is “increases hepatic and muscular glycogen contents”; the hepatic triglyceride contents entry is reported as “decreases hepatic triglyceride contents”. Also, in series [4] (setting [5]), the Adiponectin was 50.4 ± 4.8 µg/mL, the Body weight amounted to 32.1 ± 1.8 g, the Fasting plasma glucose was 62.8 ± 6.3 mg/dL and the Fasting plasma insulin amounted to 0.44 ± 0.19 ng/mL. Further, in series [4] (setting [5]), the Food intake came to 2.93 ± 0.37 g/day, the Leptin is 17.3 ± 5.4 ng/mL, the NEFA was determined as 0.78 ± 0.18 mEq/l and the TNF-1α was 33.7 ± 4.4 pg/mL. Moreover, in series [4] (setting [5]), the Total cholesterol came out at 177.9 ± 24.6 mg/dL and the Triglyceride is 26.2 ± 4.4 mg/dL. Also, in series [4] (intraperitoneal, 1 mg per mice, for every 7 days), the glucose tolerance result is recorded as “significantly improved glucose tolerance”. Besides, the “rapid cancer cell death” value in the series on AGS is “rapid cancer cell death was demonstrated”. Moreover, in the series on db/db mice, the glucose tolerance result is on record as “improves glucose tolerance”; the “hepatic and muscular glycogen synthesis” value was “increases hepatic and muscular glycogen synthesis”. Also, in the series with MKN45, the “rapid cancer cell death” value is recorded as “rapid cancer cell death was demonstrated”.
